Source: paper PMC12250129, “Exploring the Therapeutic Potential of ^177Lu-PSMA-617 in a Mouse Model of Prostate Cancer Bone Metastases” (International Journal of Molecular Sciences, 2025)

Key:
PSMA = target: T1, PSMA (Homo sapiens, UniProt Q04609); test: Saturation binding assay on intact LNCaP cells; conditions: 1 h at 4 °C
T1 construct: host or cells: LNCaP human prostate cancer cells
Procedure: The competitive inhibition assay was performed in 10^5 LNCaP cells/well as previously described. The radioligand (^177Lu-PSMA-617) was added as a 0.75 nM solution to 10 different concentrations of non-labeled, ^natLu-labeled PSMA-617 (from 0.01 to 10,000 nM). After 1 h of incubation at 4 °C, the cells were washed with ice-cold PBS, and the cell-bound radioactivity was measured in a gamma counter (PerkinElmer, Waltham, MA, USA). The IC50 (half-maximal inhibitory concentration) value was determined using GraphPad Prism version 5.0 (Graph Pad Software, San Diego, CA, USA). Determination of the dissociation constants (Kd values) was performed by saturation binding assays using LNCaP cells. A total of 10^5 cells were seeded in 96-well plates (cells in 100 µL of the RPMI medium/well), allowing adhesion and growth overnight at 37 °C and 5% CO2. […] The Kd values were determined by plotting specific binding (total binding minus unspecific binding) against the molar concentration of the added radioligands followed by nonlinear regression analysis using the GraphPad Prism 5 software. The binding affinity (Ki) of ^177/natLu-PSMA-617 was calculated using the following formula as described previously: Ki = IC50/[1 + ([radioligand]/Kd)].

[1] = system: bone metastasis of LNCaP/Luc prostate cancer; test: Therapeutic efficacy in mice with bone metastasis of LNCaP/Luc prostate cancer; assay type: in vivo, mouse; conditions: for median survival time: tail vein, day 0, control 26 days; for lifespan increase: vs control
Procedure: Therapeutic response monitoring was performed using bioluminescence imaging on days 3, 7, 15, and 30. […] The survival curves presented in Figure 6C further highlight the therapeutic effect. The median survival time for the control group (receiving normal saline) was 26 days, whereas mice treated with 1mCi (37 MBq) and 3mCi (111 MBq) of ^177Lu-PSMA-617 had median survival times of 34 days (p = 0.01) and 40 days (p = 0.02), respectively.
The mice were intratibially injected with LNCaP/Luc cells. After 45 days of tumor-implantation, the mice were assigned to three groups, including the saline control (n = 6), a low dose of ^177Lu-PSMA-617 (n = 8), and a high dose of ^177Lu-PSMA-617 (n = 9). The mice were administered via the tail vein with equivalent to 1mCi (37 MBq) and 3mCi (111 MBq) of ^177Lu-PSMA-617 on day 0. Body weight changes were measured during observation days. The death of mice was recorded for the survival curve by the Kaplan–Meier method. A humane endpoint was defined as a decrease in body weight of 20% or more compared with the body weight measured on the day of tumor inoculation. The survival rate of all groups was analyzed by the log-rank test, and p < 0.05 was considered significant difference. The median survival time was presented in efficacy studies. The median survival time was calculated as the smallest survival time for which the survivor function is less than or equal to 0.5. The therapeutic responses were monitored by bioluminescence imaging during observation days. The BNL/Luc tumor of mice was imaged and measured using the IVIS Imaging system and Living Imaging software (Xenogen, Alameda, CA, USA; available at https://www.perkinelmer.com) on days 3, 7, 15, and 30.

[2] = Absorbed radiation dose calculations (OLINDA/EXM), extrapolated from mouse data; parameters: species or system human; conditions: 70 kg male adult
Procedure: Radiation doses (mGy/GBq) for major human organs (male) were calculated using the OLINDA/EXM Version 1.1 software. The organ-specific radiation absorbed doses following the administration of ^177Lu-PSMA-617 to humans were estimated based on residence times derived from mouse data and are presented in Table 1. […] The overall effective dose was 0.127 mSv/MBq. These findings provide critical insights into the dosimetry profile of ^177Lu-PSMA-617, aiding in the assessment of its safety and therapeutic potential.
The absorbed radiation dose calculations were performed as previously reported. For the estimation of mean absorbed doses in humans, the relative organ mass scaling method was used. The calculated mean value of the percentage injected activity per gram of tissue (%IA/g) for the organs in mice was extrapolated to the uptake amount in the organs of a 70 kg adult using the following formula:[(%IA/gorgan)animal × (kgTB weight)animal] × (gorgan/kgTB weight)human = (%IA/organ)human
The extrapolated values (%IA) in human organs at 1, 4, 24, and 48 h were fitted with exponential biokinetic models and integrated to obtain the number of disintegrations in the source organs; this information was entered into the OLINDA/EXM computer program. The integrals (MBq-s) for 11 organs, including heart contents (blood), the heart, the liver, the spleen, the lung, the kidney, muscle, the brain, bone, the small intestine, and the remainder of the body, were evaluated and used for the dosimetry evaluation.

PSMA-positive tumors = system: PSMA-positive tumors; parameters: method as in PMID 31399803; conditions: single intravenous dose of 111 MBq; cited from earlier work
[3] = parameters: method as in PMID 25573634; conditions: over 96 h; cited from earlier work

T1 sequence (Q04609 whole entry): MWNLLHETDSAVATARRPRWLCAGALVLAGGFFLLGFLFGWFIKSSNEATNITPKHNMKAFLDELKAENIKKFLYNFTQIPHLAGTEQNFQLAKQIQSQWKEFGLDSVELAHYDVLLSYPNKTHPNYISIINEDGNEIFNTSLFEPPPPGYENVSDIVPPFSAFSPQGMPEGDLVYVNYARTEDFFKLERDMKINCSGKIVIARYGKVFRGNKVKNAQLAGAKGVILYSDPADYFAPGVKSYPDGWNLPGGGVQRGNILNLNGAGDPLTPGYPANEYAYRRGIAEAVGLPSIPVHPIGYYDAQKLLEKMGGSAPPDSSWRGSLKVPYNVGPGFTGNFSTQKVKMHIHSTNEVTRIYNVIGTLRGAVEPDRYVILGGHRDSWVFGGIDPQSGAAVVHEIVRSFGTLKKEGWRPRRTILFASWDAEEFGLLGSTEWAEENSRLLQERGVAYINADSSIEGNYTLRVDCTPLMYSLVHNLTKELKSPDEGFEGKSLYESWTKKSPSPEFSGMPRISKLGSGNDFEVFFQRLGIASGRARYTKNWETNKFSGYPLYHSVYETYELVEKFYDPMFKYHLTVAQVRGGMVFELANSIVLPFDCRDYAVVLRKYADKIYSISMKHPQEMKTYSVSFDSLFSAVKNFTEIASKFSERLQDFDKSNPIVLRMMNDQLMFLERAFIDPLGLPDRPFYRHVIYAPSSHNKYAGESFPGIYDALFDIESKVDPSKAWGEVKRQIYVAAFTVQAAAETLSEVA

O=C([O-])CN1CCN(CC(=O)[O-])CCN(CC(=O)NCC2CCC(C(=O)N[C@@H](Cc3ccc4ccccc4c3)C(=O)NCCCC[C@H](NC(=O)N[C@@H](CCC(=O)O)C(=O)O)C(=O)O)CC2)CCN(CC(=O)[O-])CC1.[177Lu+3] (stereo partly drawn) [^177Lu-PSMA-617]
Kd (PSMA): 4.36 ± 0.664 nM
median survival time ([1]; 1mCi (37 MBq), p = 0.01): 34 days
lifespan increase ([1]; 1mCi (37 MBq)): 30.7%
median survival time ([1]; 3mCi (111 MBq), p = 0.02): 40 days
lifespan increase ([1]; 3mCi (111 MBq)): 53.8%
bioluminescence signal intensity vs controls ([1]; days 3, 7, 15 and 30 after treatment): significantly lower signal intensities
Estimated Dose ([2]; Adrenals): 8.15E−04 mSv/MBq
Estimated Dose ([2]; Brain): 3.54E−05 mSv/MBq
Estimated Dose ([2]; Breasts): 7.86E−03 mSv/MBq
Estimated Dose ([2]; Kidneys): 2.19E−04 mSv/MBq
Estimated Dose ([2]; LLI Wall): 2.01E−02 mSv/MBq
Estimated Dose ([2]; Liver): 5.81E−04 mSv/MBq
Estimated Dose ([2]; Lungs): 1.47E−03 mSv/MBq
Estimated Dose ([2]; Muscle): 6.33E−05 mSv/MBq
Estimated Dose ([2]; Osteogenic Cells): 4.98E−03 mSv/MBq
Estimated Dose ([2]; Pancreas): 8.27E−04 mSv/MBq
Estimated Dose ([2]; Red Marrow): 1.47E−02 mSv/MBq
Estimated Dose ([2]; Skin): 1.54E−03 mSv/MBq
Estimated Dose ([2]; Small Intestine): 8.52E−04 mSv/MBq
Estimated Dose ([2]; Spleen): 6.92E−05 mSv/MBq
Estimated Dose ([2]; Stomach Wall): 1.98E−02 mSv/MBq
Estimated Dose ([2]; Testes): 2.16E−02 mSv/MBq
Estimated Dose ([2]; Thymus): 8.01E−04 mSv/MBq
Estimated Dose ([2]; Thyroid): 8.08E−03 mSv/MBq
Estimated Dose ([2]; ULI Wall): 8.45E−04 mSv/MBq
Estimated Dose ([2]; Urinary Bladder Wall): 8.32E−03 mSv/MBq
Estimated Dose ([2]; Uterus): 8.48E−04 mSv/MBq
Effective Dose ([2]; overall effective dose): 1.27E−01 mSv/MBq
median survival (PSMA-positive tumors): 130 days
stability in human serum [3]: > 95%
